This passage reports Ki results from patent EP2508526A1, “Spiroalkene carboxamide derivatives and their use as chemokine receptor modulators” (Ares Trading SA, priority 2011, dated 2012).

Assay [1] concerns the target T1, hCCR2b (Homo sapiens, UniProt P41597).
T1 sequence (P41597 1-360 isoform P41597-2): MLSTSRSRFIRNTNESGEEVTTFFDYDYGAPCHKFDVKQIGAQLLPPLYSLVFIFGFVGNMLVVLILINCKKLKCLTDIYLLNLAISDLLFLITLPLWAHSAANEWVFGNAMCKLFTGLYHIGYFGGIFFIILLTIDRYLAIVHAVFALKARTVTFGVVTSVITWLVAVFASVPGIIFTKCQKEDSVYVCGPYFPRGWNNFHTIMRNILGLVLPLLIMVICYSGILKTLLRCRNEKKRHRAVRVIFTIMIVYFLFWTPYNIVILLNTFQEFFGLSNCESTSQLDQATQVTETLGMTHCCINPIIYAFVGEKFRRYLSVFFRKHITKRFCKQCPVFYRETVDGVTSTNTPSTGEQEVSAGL
Description: CCR2 binding assay ([125I]MCP-1, SPA, CHO cell membranes). Also on record: expressed in transfected cells; host or cells: CHO cells (membrane preparation). The note with it: membranes from CHO cells expressing hCCR2b, 50 pM [125I]MCP-1; read-out: Binding hCCR2 (Ki). The method, boiled down: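 CHO membranes expressing hCCR2b (1–5 µg/well) with 50 pM [125I]MCP-1 and WGA SPA beads in 50 mM HEPES pH 7.4, 5 mM MgCl2, 1 mM CaCl2, 0.1% BSA, 1% DMSO; 90 min RT with agitation. Bound counts on scintillation counter; nonspecific defined by 1000-fold excess unlabeled compound.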

Assay [2] addresses T1, hCCR2b. In words: Chemotaxis of L1.2-hCCR2b cells towards MCP-1 P8A. The assay is classed as cell-based. Further details: expressed in transfected cells; host or cells: L1.2 cells (murine pre-B cell line). The note with it: MCP-1 P8A at EC80, 4-hours incubation. From the text: L1.2 cells, a murine pre-LB cellline, were transfected with the human CCR2b receptor for use in the transmigration of L1.2 hCCR2b on the chemotaxis system: ChemotX® provided by Neuroprobes (8µm pore size). Monocyte Chemoattractant Protein-1 (MCP-1) stimulation leads to activate the CCR2 receptor and inititates a cascade of events including chemotaxis. MCP-1 ligand will be replaced by MCP-1 P8A protein with genetic modifications to prevent the oligomerization of the protein. L1.2-hCCR2b are incubated in white RPMI 1640, 5% v/v Heat inactivated FCS, 1% v/v penicillin-streptomycin supplemented with 5 mM Butyrate overnight to enhance receptor expression level at the cell surface. L1.2-hCCR2b cells and compounds in DMSO (1% final) are preincubated 15 min in chemotaxis medium and placed in the Upper Chamber of the chemotaxis system. The MCP-1 P8A initially present at its EC80 (concentration of MCP-1 P8A which allows 80% of cell migration) in the Lower Chamber (with compounds to avoid any compound gradient) diffuses through the pores of the membrane and interacts with the CCR2 receptor of cells present in the upper chamber. The tested compounds can also potentially interact with CCR2 receptor and therefore inhibit the migration of the cells from the Upper Chamber to the Lower Chamber. After a 4-hours incubation time at 37°C, 5% CO2, a quantification of the cells which have migrated is performed using the Cyquant (Invitrogen) and a fluorescent reader as a Fluostar (exc: 485nm; emm: 520 nm). Specific migration is assessed by substracting the basal migration of cells without any stimulation. Chemotaxis data were analyzed using the Genedata Screener® software.

Turning to `CCN1CCC2(CC1)OC(=O)C(C)=C2C(=O)N1CCN(c2cccc(C(F)(F)F)c2)CC1` [Compound 74, 8-ethyl-3-methyl-4-({4-[3-(trifluoromethyl)phenyl]piperazin-1-yl}carbonyl)-1-oxa-8-azaspiro[4.5]dec-3-en-2-one], the inhibition constant (Ki) at hCCR2b [1] and at hCCR2b [2] was < 50 nM throughout.

As to `CCN1CCC2(CC1)OC(=O)C(C)=C2C(=O)N1CCc2ccc(C(F)(F)F)cc2C1` [Compound 97, 8-ethyl-3-methyl-4-{[7-(trifluoromethyl)-3,4-dihydroisoquinolin-2(1H)-yl]carbonyl}-1-oxa-8-azaspiro[4.5]dec-3-en-2-one], the Ki on hCCR2b [1] and at hCCR2b [2] was < 50 nM throughout.

What is called Ki is a measure of affinity in units of concentration, obtained from inhibition or displacement.
